# Test results taken from US9980973B2, “Bicyclic heterocycle compounds and their uses in therapy” (ASTEX THERAPEUTICS LIMITED, priority 2012, dated 2018).
# Where a name gives a salt, the structure may show the parent alone. Read-outs that look alike come from different tables or passages of the source.
# Experiments:
# [1] = test system: EVSA-T (human breast carcinoma); experiment: Anti-proliferative activity, Alamar Blue assay, EVSA-T; format: cell-based
# [2] = target: T1, BIR3 domain of human XIAP (Homo sapiens, UniProt P98170); experiment: XIAP in vitro competitive displacement binding assay (fluorescence polarization); settings: for IC50: plain number = IC50, average where more than one data point, read-out: Xiap IC50 or PI μM (IC50); for inhibition at 0.04 µM: 1 h, PI at 0.04 μM, read-out: Xiap IC50 or PI μM (PI)
# T1 construct: BIR3 domain of human XIAP (residues 252-350) fused to a His-tag; His-tag (cleaved yes); made in house; host or cells: Escherichia coli
# [3] = EVSA-T cells, 72 hours, Alamar Blue, hydrochloride, read-out: EVSA-T prolif
# [4] = Homo sapiens, EVSA-T, read-out: EC50 in EVSA-T cell line assays
# [5] = Homo sapiens, EVSA-T, 72 h, EVSA-T cells, 72 hours, Alamar Blue, read-out: EVSA-T prolif
# T1 sequence (P98170 252-350): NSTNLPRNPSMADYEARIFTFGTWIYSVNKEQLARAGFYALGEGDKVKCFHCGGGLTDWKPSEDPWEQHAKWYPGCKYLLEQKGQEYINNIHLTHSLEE
compound,measurement,setting,value
"C[C@@H]1CN(CC(=O)N2CC(C)(C)c3ncc(Cc4ccc(F)cc4)cc32)[C@@H](CN2CCCCC2C(F)(F)F)CN1 (single isomer, unassigned) [Example 24, 1-{6-[(4-Fluorophenyl)methyl]-3,3-dimethyl-1H,2H,3H-pyrrolo[3,2-b]pyridin-1-yl}-2-[(2R,5R)-5-methyl-2-{[2-([R or S]trifluoromethyl)piperidin-1-yl]methyl}piperazin-1-yl]ethan-1-one hydrochloride]",EC50,[1]; [3],13 nM
same,EC50,[1]; [4],< 1000 nM
same,IC50,[2],0.13 µM
"C[C@@H]1CN(CC(=O)N2CC(C)(C)c3ncc(Cc4ccc(F)cc4)cc32)[C@@H](CN2CC3CC2CO3)CN1 (stereo partly drawn) [Example 20, 1-{6-[(4-Fluorophenyl)methyl]-3,3-dimethyl-1H,2H,3H-pyrrolo[3,2-b]pyridin-1-yl}-2-[(2R,5R)-5-methyl-2-{2-oxa-5-azabicyclo[2.2.1]heptan-5-ylmethyl}piperazin-1-yl]ethan-1-one dihydrochloride]",EC50,[1]; [5],2.8 nM
same,EC50,[1]; [4],< 1000 nM
same,IC50,[2],0.14 µM
"C[C@@H]1CN(CC(=O)N2CC(C)(C)c3ccc(Cc4ccc(F)cc4)cc32)[C@@H](CN2[C@H](C)COC[C@H]2C)CN1 [Example 49, 2-[(2R,5R)-2-{[(3R,5R)-3,5-Dimethylmorpholin-4-yl]methyl}-5-methylpiperazin-1-yl]-1-{6-[(4-fluorophenyl)methyl]-3,3-dimethyl-2,3-dihydro-1H-indol-1-yl]ethan-1-one, dihydrochloride]",EC50,[1]; [5],1.1 nM
same,EC50,[1]; [4],< 1000 nM
same,inhibition at 0.04 µM,[2],44%
"C[C@@H]1CN(CC(=O)N2CC(C)(C)c3ncc(Cc4ccc(F)cc4)cc32)[C@@H](CN2CCOCC2C(F)(F)F)CN1 (single isomer, unassigned) [Example 25, 1-{6-[(4-Fluorophenyl)methyl]-3,3-dimethyl-1H,2H,3H-pyrrolo[3,2-b]pyridin-1-yl}-2-[(2R,5R)-5-methyl-2-{[3-([R or S]trifluoromethyl)morpholin-4-yl]methyl}piperazin-1-yl]ethan-1-one hydrochloride]",EC50,[1]; [3],1.2 nM
same,EC50,[1]; [4],< 1000 nM
same,IC50,[2],0.12 µM
"C[C@@H]1CN(CC(=O)N2CC(C)(C)c3ncc(Cc4ccc(F)cc4)cc32)[C@@H](CN2CCOC[C@]2(C)CO)CN1 [Example 50, 1-{6-[(4-Fluorophenyl)methyl]-3,3-dimethyl-1H,2H,3H-pyrrolo[3,2-b]pyridin-1-yl}-2-[(2R,5R)-2-{[(3S)-3-(hydroxymethyl)-3-methylmorpholin-4-yl]methyl}-5-methylpiperazin-1-yl]ethan-1-one, dihydrochloride]",EC50,[1]; [5],1.3 nM
same,EC50,[1]; [4],< 1000 nM
same,inhibition at 0.04 µM,[2],44%
"C[C@@H]1CN(CC(=O)N2CC(C)(C)c3ncc(Cc4ccc(F)cc4F)cc32)[C@@H](CN2CCOC[C@]2(C)CO)CN1 [Example 57, 1-{6-[(2,4-Difluorophenyl)methyl]-3,3-dimethyl-1H,2H,3H-pyrrolo[3,2-b]pyridin-1-yl}-2-[(2R,5R)-2-{[(3S)-3-(hydroxymethyl)-3-methylmorpholin-4-yl]methyl}-5-methylpiperazin-1-yl]ethan-1-one, dihydrochloride]",EC50,[1]; [5],2.6 nM
same,EC50,[1]; [4],< 1000 nM
same,inhibition at 0.04 µM,[2],41%
"C[C@@H]1CN(CC(=O)N2CC(C)(C)c3cnc(Cc4ccc(F)cc4F)cc32)[C@@H](CN2CCOC[C@]2(C)CO)CN1 (single isomer, unassigned) [Example 66, dihydrochloride]",EC50,[1]; [5],0.8 nM
same,EC50,[1]; [4],< 1000 nM
same,inhibition at 0.04 µM,[2],78%
"C[C@@H]1CN(CC(=O)N2CC(C)(C)c3ncc(Cc4ccc(F)cc4)cc32)[C@@H](CN2CCOC[C@H]2CO)CN1 [Example 2, 1-{6-[(4-Fluorophenyl)methyl]-3,3-dimethyl-1H,2H,3H-pyrrolo[3,2-b]pyridin-1-yl}-2-[(2R,5R)-2-{[(3R)-3-(hydroxymethyl)morpholin-4-yl]methyl}-5-methylpiperazin-1-yl]ethan-1-one dihydrochloride]",EC50,[1]; [5],1.7 nM
same,EC50,[1]; [4],< 1000 nM
same,inhibition at 0.04 µM,[2],40%
